{"source": "ChEMBL document CHEMBL5649169", "about": "(ChemMedChem, 2018); also: assay method not described here", "key": {"[1]": {"target": "AP-2 complex subunit beta (Homo sapiens) (UniProt P63010)", "sequence (P63010 whole entry, one chain of several)": "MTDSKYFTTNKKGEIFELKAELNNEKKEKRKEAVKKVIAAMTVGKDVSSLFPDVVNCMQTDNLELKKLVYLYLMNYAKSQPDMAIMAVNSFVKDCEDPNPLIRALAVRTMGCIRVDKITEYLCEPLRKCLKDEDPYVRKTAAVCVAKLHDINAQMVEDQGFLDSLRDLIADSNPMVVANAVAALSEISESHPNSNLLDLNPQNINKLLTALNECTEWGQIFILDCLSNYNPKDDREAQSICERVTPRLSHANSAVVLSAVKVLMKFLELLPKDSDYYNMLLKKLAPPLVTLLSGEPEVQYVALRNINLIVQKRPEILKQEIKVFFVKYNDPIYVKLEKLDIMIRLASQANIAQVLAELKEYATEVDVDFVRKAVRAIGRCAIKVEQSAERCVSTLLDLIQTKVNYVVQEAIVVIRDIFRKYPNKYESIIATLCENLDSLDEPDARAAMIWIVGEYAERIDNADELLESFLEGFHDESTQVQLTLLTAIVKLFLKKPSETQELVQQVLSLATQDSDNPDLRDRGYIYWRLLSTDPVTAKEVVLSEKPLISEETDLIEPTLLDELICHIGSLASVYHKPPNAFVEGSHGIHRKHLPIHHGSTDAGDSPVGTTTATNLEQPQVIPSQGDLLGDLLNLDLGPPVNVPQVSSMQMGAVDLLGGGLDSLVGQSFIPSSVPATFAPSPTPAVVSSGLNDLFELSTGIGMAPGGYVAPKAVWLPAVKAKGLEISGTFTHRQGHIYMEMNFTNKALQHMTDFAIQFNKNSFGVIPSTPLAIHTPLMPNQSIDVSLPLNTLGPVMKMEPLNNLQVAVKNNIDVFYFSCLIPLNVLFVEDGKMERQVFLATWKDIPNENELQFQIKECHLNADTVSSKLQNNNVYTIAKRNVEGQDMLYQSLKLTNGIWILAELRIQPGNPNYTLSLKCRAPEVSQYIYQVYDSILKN"}, "[2]": {"target": "Actin-related protein 2/3 complex subunit 1B (Homo sapiens) (UniProt O15143)"}, "[3]": {"target": "Actin-related protein 2/3 complex subunit 4 (Homo sapiens) (UniProt P59998)"}, "[4]": {"target": "ATPase family AAA domain-containing protein 3A (Homo sapiens) (UniProt Q9NVI7)"}, "[5]": {"target": "ATP synthase F(0) complex subunit e, mitochondrial (Homo sapiens) (UniProt P56385)"}, "[6]": {"target": "Cyclin-dependent kinase-like 5 (Homo sapiens) (UniProt O76039)", "sequence (O76039 whole entry)": "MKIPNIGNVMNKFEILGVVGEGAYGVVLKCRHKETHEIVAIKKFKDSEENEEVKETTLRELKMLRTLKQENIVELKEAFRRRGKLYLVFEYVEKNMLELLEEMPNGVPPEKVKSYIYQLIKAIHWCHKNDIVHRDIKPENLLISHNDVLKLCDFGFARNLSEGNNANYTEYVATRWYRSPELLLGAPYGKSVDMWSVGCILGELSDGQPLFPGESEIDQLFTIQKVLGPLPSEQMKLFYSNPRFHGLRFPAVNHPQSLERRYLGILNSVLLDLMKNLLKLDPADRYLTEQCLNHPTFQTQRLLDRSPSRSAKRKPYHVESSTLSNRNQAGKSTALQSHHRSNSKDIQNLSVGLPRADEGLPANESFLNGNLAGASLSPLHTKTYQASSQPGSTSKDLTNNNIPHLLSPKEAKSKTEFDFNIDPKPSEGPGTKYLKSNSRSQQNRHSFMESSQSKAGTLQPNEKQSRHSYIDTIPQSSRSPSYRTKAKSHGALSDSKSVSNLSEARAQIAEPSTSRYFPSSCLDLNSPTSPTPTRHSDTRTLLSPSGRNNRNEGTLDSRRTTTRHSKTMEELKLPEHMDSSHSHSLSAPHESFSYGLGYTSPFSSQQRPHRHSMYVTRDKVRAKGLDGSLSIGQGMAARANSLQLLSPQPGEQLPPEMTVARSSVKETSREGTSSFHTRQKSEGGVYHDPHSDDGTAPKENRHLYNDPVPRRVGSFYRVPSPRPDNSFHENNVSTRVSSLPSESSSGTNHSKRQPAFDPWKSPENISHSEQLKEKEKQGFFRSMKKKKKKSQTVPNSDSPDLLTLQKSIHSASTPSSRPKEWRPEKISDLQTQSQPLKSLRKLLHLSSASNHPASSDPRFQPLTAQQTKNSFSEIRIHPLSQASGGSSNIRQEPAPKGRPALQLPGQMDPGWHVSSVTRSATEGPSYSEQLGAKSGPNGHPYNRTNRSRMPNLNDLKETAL"}, "[7]": {"target": "Src substrate cortactin (Homo sapiens) (UniProt Q14247)"}, "[8]": {"target": "Dopamine beta-hydroxylase (Homo sapiens) (UniProt P09172)"}, "[9]": {"target": "Aromatic-L-amino-acid decarboxylase (Homo sapiens) (UniProt P20711)"}, "[10]": {"target": "ATP-dependent RNA helicase DDX24 (Homo sapiens) (UniProt Q9GZR7)"}, "[11]": {"target": "Eukaryotic translation elongation factor 1 epsilon-1 (Homo sapiens) (UniProt O43324)"}, "[12]": {"target": "Fanconi anemia group D2 protein (Homo sapiens) (UniProt Q9BXW9)"}, "[13]": {"target": "Growth factor receptor-bound protein 2 (Homo sapiens) (UniProt P62993)"}, "[14]": {"target": "General transcription factor II-I (Homo sapiens) (UniProt P78347)"}, "[15]": {"target": "Heterogeneous nuclear ribonucleoprotein L (Homo sapiens) (UniProt P14866)"}, "[16]": {"target": "Stress-70 protein, mitochondrial (Homo sapiens) (UniProt P38646)"}, "[17]": {"target": "Heat shock protein 105 kDa (Homo sapiens) (UniProt Q92598)"}, "[18]": {"target": "Importin-9 (Homo sapiens) (UniProt Q96P70)"}, "[19]": {"target": "Leucine-rich repeat-containing protein 47 (Homo sapiens) (UniProt Q8N1G4)"}, "[20]": {"target": "Dual specificity mitogen-activated protein kinase kinase 3 (Homo sapiens) (UniProt P46734)", "sequence (P46734 whole entry)": "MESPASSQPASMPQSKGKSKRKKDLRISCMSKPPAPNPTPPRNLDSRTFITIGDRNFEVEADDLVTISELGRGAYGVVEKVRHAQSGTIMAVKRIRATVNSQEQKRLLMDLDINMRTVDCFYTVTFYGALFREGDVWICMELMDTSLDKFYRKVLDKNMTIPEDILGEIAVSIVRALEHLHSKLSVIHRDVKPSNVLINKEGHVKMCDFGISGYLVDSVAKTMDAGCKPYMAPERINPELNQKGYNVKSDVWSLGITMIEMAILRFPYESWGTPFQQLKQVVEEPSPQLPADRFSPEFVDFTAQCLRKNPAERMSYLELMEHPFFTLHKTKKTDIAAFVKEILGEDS"}, "[21]": {"target": "Mitogen-activated protein kinase kinase kinase kinase 2 (Homo sapiens) (UniProt Q12851)"}, "[22]": {"target": "S-adenosylmethionine synthase isoform type-2 (Homo sapiens) (UniProt P31153)"}, "[23]": {"target": "Small ribosomal subunit protein uS7m (Homo sapiens) (UniProt Q9Y2R9)"}, "[24]": {"target": "ATP synthase F(0) complex subunit a (Homo sapiens) (UniProt P00846)"}, "[25]": {"target": "Protein disulfide-isomerase (Homo sapiens) (UniProt P07237)"}, "[26]": {"target": "Protein RRP5 homolog (Homo sapiens) (UniProt Q14690)"}, "[27]": {"target": "Programmed cell death 6-interacting protein (Homo sapiens) (UniProt Q8WUM4)", "sequence (Q8WUM4 whole entry)": "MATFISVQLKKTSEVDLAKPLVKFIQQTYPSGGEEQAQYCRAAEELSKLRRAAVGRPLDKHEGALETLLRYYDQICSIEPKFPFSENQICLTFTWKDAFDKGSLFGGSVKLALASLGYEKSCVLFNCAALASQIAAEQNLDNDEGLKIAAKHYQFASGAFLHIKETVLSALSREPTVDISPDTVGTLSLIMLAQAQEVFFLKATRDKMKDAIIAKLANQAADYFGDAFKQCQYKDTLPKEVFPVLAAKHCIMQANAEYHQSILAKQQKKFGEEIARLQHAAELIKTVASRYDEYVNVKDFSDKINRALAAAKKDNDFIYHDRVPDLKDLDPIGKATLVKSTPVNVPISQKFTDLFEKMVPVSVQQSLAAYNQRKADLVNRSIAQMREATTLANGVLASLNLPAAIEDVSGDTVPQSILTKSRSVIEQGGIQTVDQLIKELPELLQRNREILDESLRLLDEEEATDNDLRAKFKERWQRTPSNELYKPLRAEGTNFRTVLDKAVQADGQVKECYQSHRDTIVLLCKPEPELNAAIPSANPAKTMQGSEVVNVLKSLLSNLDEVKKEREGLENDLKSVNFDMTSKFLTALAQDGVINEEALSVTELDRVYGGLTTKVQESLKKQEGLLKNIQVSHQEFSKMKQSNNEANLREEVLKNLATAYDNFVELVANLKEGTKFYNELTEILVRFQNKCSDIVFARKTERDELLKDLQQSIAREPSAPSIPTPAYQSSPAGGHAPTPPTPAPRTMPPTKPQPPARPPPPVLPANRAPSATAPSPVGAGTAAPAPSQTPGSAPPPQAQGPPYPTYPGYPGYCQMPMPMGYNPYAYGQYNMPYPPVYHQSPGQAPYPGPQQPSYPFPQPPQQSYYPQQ"}, "[28]": {"target": "Phosphatidylinositol 4-kinase alpha (Homo sapiens) (UniProt P42356)"}, "[29]": {"target": "cAMP-dependent protein kinase catalytic subunit alpha (Homo sapiens) (UniProt P17612)"}, "[30]": {"target": "Proteasome subunit alpha type-7 (Homo sapiens) (UniProt O14818)"}, "[31]": {"target": "26S proteasome regulatory subunit 4 (Homo sapiens) (UniProt P62191)"}, "[32]": {"target": "Glycogen phosphorylase, brain form (Homo sapiens) (UniProt P11216)", "sequence (P11216 whole entry)": "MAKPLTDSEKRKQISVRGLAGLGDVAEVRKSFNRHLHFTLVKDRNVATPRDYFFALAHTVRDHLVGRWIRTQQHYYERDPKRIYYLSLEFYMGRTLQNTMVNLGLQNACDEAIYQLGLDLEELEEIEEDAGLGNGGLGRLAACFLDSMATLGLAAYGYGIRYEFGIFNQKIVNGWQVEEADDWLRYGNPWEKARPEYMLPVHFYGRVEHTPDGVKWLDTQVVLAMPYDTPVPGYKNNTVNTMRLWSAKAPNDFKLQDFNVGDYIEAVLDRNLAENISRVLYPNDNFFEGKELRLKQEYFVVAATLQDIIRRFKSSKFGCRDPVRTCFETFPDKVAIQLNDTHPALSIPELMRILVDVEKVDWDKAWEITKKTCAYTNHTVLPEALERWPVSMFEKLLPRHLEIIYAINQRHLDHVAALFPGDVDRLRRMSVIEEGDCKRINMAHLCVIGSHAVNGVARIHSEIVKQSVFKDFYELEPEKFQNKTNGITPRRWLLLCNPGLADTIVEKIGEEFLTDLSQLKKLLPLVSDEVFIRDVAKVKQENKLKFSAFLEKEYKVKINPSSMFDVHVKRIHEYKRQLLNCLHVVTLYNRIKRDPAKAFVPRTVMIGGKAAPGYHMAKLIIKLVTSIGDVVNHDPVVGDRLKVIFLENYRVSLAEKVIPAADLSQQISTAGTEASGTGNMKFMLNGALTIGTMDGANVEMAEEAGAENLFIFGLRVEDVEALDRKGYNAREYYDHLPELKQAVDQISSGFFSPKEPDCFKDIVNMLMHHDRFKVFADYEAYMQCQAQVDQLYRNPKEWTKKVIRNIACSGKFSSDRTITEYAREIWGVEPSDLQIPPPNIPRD"}, "[33]": {"target": "RNA-binding protein 3 (Homo sapiens) (UniProt P98179)", "sequence (P98179 whole entry)": "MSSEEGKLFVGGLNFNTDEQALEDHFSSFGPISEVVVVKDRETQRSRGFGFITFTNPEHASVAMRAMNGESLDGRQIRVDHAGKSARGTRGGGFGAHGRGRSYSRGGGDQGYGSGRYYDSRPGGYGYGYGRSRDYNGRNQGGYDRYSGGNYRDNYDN"}, "[34]": {"target": "Replication factor C subunit 3 (Homo sapiens) (UniProt P40938)"}, "[35]": {"target": "Large ribosomal subunit protein uL4 (Homo sapiens) (UniProt P36578)"}, "[36]": {"target": "Small ribosomal subunit protein eS6 (Homo sapiens) (UniProt P62753)"}, "[37]": {"target": "Protein transport protein Sec24C (Homo sapiens) (UniProt P53992)"}, "[38]": {"target": "Protein transport protein Sec61 subunit beta (Homo sapiens) (UniProt P60468)", "sequence (P60468 whole entry)": "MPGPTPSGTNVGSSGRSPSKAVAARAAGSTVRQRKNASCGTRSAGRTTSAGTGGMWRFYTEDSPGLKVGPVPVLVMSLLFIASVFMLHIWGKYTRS"}, "[39]": {"target": "Metal cation symporter ZIP14 (Homo sapiens) (UniProt Q15043)", "sequence (Q15043 whole entry)": "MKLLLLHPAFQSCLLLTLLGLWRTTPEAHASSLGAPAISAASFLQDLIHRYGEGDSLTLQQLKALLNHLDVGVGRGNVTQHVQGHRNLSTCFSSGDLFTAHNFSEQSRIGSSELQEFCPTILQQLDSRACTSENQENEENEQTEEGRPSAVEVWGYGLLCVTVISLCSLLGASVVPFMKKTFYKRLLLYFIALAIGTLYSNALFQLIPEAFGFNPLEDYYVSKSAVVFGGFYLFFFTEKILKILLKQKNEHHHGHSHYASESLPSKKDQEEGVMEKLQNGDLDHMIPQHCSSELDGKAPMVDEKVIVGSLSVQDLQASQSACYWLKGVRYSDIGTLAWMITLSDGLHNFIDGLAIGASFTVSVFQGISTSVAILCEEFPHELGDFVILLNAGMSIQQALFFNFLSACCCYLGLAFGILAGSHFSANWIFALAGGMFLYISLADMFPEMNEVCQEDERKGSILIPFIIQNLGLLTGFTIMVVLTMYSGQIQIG"}, "[40]": {"target": "Double-stranded RNA-binding protein Staufen homolog 1 (Homo sapiens) (UniProt O95793)"}, "[41]": {"target": "Tyrosine-protein kinase Tec (Homo sapiens) (UniProt P42680)"}, "[42]": {"target": "Tropomyosin alpha-3 chain (Homo sapiens) (UniProt P06753)", "sequence (P06753 whole entry)": "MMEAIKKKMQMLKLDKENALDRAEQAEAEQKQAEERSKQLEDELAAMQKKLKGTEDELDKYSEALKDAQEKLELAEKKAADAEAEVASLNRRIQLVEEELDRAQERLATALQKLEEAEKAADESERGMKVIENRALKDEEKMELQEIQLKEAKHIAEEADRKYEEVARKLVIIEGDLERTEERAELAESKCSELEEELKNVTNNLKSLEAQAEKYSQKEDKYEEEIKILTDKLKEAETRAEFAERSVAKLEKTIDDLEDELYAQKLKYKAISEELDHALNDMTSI"}, "[43]": {"target": "Tripeptidyl-peptidase 2 (Homo sapiens) (UniProt P29144)"}, "[44]": {"target": "Serine/threonine-protein kinase ULK3 (Homo sapiens) (UniProt Q6PHR2)"}, "[45]": {"target": "Transitional endoplasmic reticulum ATPase (Homo sapiens) (UniProt P55072)"}}}
{"smiles": "Cc1ccc(C(=O)Nc2cccc(C(F)(F)F)c2)cc1Nc1nc(-c2cccnc2)nc2c1cnn2C", "values": [{"measurement": "ED50", "setting": "[1]", "result": 11.9, "unit": "µM"}, {"measurement": "ED50", "setting": "[2]", "result": 115, "unit": "µM"}, {"measurement": "ED50", "setting": "[3]", "result": 18.9, "unit": "µM"}, {"measurement": "ED50", "setting": "[4]", "result": 0.0089, "unit": "µM"}, {"measurement": "ED50", "setting": "[5]", "result": 20, "unit": "µM"}, {"measurement": "ED50", "setting": "[6]", "result": 0.00162, "unit": "µM"}, {"measurement": "ED50", "setting": "[7]", "result": 0.0605, "unit": "µM"}, {"measurement": "ED50", "setting": "[8]", "result": 2.26, "unit": "µM"}, {"measurement": "ED50", "setting": "[9]", "result": 0.0409, "unit": "µM"}, {"measurement": "ED50", "setting": "[10]", "result": 2.99, "unit": "µM"}, {"measurement": "ED50", "setting": "[11]", "result": 0.168, "unit": "µM"}, {"measurement": "ED50", "setting": "[12]", "result": 1.96, "unit": "µM"}, {"measurement": "ED50", "setting": "[13]", "result": 0.0534, "unit": "µM"}, {"measurement": "ED50", "setting": "[14]", "result": 2.77, "unit": "µM"}, {"measurement": "ED50", "setting": "[15]", "result": 16.4, "unit": "µM"}, {"measurement": "ED50", "setting": "[16]", "result": 0.0314, "unit": "µM"}, {"measurement": "ED50", "setting": "[17]", "result": 2.99, "unit": "µM"}, {"measurement": "ED50", "setting": "[18]", "result": 19.2, "unit": "µM"}, {"measurement": "ED50", "setting": "[19]", "result": 0.0207, "unit": "µM"}, {"measurement": "ED50", "setting": "[20]", "result": 0.00369, "unit": "µM"}, {"measurement": "ED50", "setting": "[21]", "result": 0.0201, "unit": "µM"}, {"measurement": "ED50", "setting": "[22]", "result": 11.2, "unit": "µM"}, {"measurement": "ED50", "setting": "[23]", "result": 7.18, "unit": "µM"}, {"measurement": "ED50", "setting": "[24]", "result": 0.677, "unit": "µM"}, {"measurement": "ED50", "setting": "[25]", "result": 4.25, "unit": "µM"}, {"measurement": "ED50", "setting": "[26]", "result": 0.0339, "unit": "µM"}, {"measurement": "ED50", "setting": "[27]", "result": 4.91, "unit": "µM"}, {"measurement": "ED50", "setting": "[28]", "result": 18.6, "unit": "µM"}, {"measurement": "ED50", "setting": "[29]", "result": 12900, "unit": "µM"}, {"measurement": "ED50", "setting": "[30]", "result": 94.2, "unit": "µM"}, {"measurement": "ED50", "setting": "[31]", "result": 91.8, "unit": "µM"}, {"measurement": "ED50", "setting": "[32]", "result": 0.0395, "unit": "µM"}, {"measurement": "ED50", "setting": "[33]", "result": 13.5, "unit": "µM"}, {"measurement": "ED50", "setting": "[34]", "result": 0.485, "unit": "µM"}, {"measurement": "ED50", "setting": "[35]", "result": 4.73, "unit": "µM"}, {"measurement": "ED50", "setting": "[36]", "result": 0.0144, "unit": "µM"}, {"measurement": "ED50", "setting": "[37]", "result": 0.0116, "unit": "µM"}, {"measurement": "ED50", "setting": "[38]", "result": 11.5, "unit": "µM"}, {"measurement": "ED50", "setting": "[39]", "result": 0.00337, "unit": "µM"}, {"measurement": "ED50", "setting": "Homo sapiens", "result": 3.42, "unit": "µM"}, {"measurement": "ED50", "setting": "[40]", "result": 2.27, "unit": "µM"}, {"measurement": "ED50", "setting": "[41]", "result": 0.0311, "unit": "µM"}, {"measurement": "ED50", "setting": "[42]", "result": 5.57, "unit": "µM"}, {"measurement": "ED50", "setting": "[43]", "result": 53.8, "unit": "µM"}, {"measurement": "ED50", "setting": "[44]", "result": 3.54, "unit": "µM"}, {"measurement": "ED50", "setting": "[45]", "result": 5.07, "unit": "µM"}]}
{"smiles": "Cc1ccc(C(=O)Nc2cccc(C(F)(F)F)c2)cc1Nc1nc(-c2cccnc2)nc2nn(C)cc12", "values": [{"measurement": "ED50", "setting": "[1]", "result": 0.331, "unit": "µM"}, {"measurement": "ED50", "setting": "[2]", "result": 0.0545, "unit": "µM"}, {"measurement": "ED50", "setting": "[3]", "result": 15.8, "unit": "µM"}, {"measurement": "ED50", "setting": "[4]", "result": 7.99, "unit": "µM"}, {"measurement": "ED50", "setting": "[5]", "result": 0.531, "unit": "µM"}, {"measurement": "ED50", "setting": "[6]", "result": 0.543, "unit": "µM"}, {"measurement": "ED50", "setting": "[7]", "result": 19.6, "unit": "µM"}, {"measurement": "ED50", "setting": "[8]", "result": 3.14, "unit": "µM"}, {"measurement": "ED50", "setting": "[9]", "result": 1.52, "unit": "µM"}, {"measurement": "ED50", "setting": "[10]", "result": 0.1, "unit": "µM"}, {"measurement": "ED50", "setting": "[11]", "result": 0.502, "unit": "µM"}, {"measurement": "ED50", "setting": "[12]", "result": 2.28, "unit": "µM"}, {"measurement": "ED50", "setting": "[13]", "result": 0.821, "unit": "µM"}, {"measurement": "ED50", "setting": "[14]", "result": 0.0945, "unit": "µM"}, {"measurement": "ED50", "setting": "[15]", "result": 0.042, "unit": "µM"}, {"measurement": "ED50", "setting": "[16]", "result": 0.0308, "unit": "µM"}, {"measurement": "ED50", "setting": "[17]", "result": 8.65, "unit": "µM"}, {"measurement": "ED50", "setting": "[18]", "result": 0.00375, "unit": "µM"}, {"measurement": "ED50", "setting": "[19]", "result": 0.00913, "unit": "µM"}, {"measurement": "ED50", "setting": "[20]", "result": 2770, "unit": "µM"}, {"measurement": "ED50", "setting": "[21]", "result": 0.0236, "unit": "µM"}, {"measurement": "ED50", "setting": "[22]", "result": 0.0257, "unit": "µM"}, {"measurement": "ED50", "setting": "[23]", "result": 154, "unit": "µM"}, {"measurement": "ED50", "setting": "[24]", "result": 0.622, "unit": "µM"}, {"measurement": "ED50", "setting": "[25]", "result": 11.7, "unit": "µM"}, {"measurement": "ED50", "setting": "[26]", "result": 0.0717, "unit": "µM"}, {"measurement": "ED50", "setting": "[27]", "result": 4.24, "unit": "µM"}, {"measurement": "ED50", "setting": "[28]", "result": 50.1, "unit": "µM"}, {"measurement": "ED50", "setting": "[29]", "result": 0.0643, "unit": "µM"}, {"measurement": "ED50", "setting": "[30]", "result": 17.5, "unit": "µM"}, {"measurement": "ED50", "setting": "[31]", "result": 0.00477, "unit": "µM"}, {"measurement": "ED50", "setting": "[32]", "result": 7, "unit": "µM"}, {"measurement": "ED50", "setting": "[33]", "result": 9.45, "unit": "µM"}, {"measurement": "ED50", "setting": "[34]", "result": 0.0505, "unit": "µM"}, {"measurement": "ED50", "setting": "[35]", "result": 24.9, "unit": "µM"}, {"measurement": "ED50", "setting": "[36]", "result": 0.061, "unit": "µM"}, {"measurement": "ED50", "setting": "[37]", "result": 1.46, "unit": "µM"}, {"measurement": "ED50", "setting": "[38]", "result": 3, "unit": "µM"}, {"measurement": "ED50", "setting": "[39]", "result": 3.03, "unit": "µM"}, {"measurement": "ED50", "setting": "Homo sapiens", "result": 0.545, "unit": "µM"}, {"measurement": "ED50", "setting": "[40]", "result": 0.0134, "unit": "µM"}, {"measurement": "ED50", "setting": "[41]", "result": 0.0289, "unit": "µM"}, {"measurement": "ED50", "setting": "[42]", "result": 18.9, "unit": "µM"}, {"measurement": "ED50", "setting": "[43]", "result": 0.487, "unit": "µM"}, {"measurement": "ED50", "setting": "[44]", "result": 0.0784, "unit": "µM"}, {"measurement": "ED50", "setting": "[45]", "result": 0.0706, "unit": "µM"}]}
